Assays:
RET kinase = RET kinase (Homo sapiens, UniProt P07949); experiment: RET Kinase Activity Assay; type: biochemical; conditions: read-out: Ret, % INH, at 30 uM
Method: (§1) The disclosed compounds were assayed for their ability to inhibit the activity of RET kinase. Nunc Maxwasorb plates were coated with streptavidin by overnight incubation with 100 μL per well of 1 μg/mL Streptavidin in DPBS. Prior to the start of the experiment, the plates were washed with TBST (3×200 μL) and blocked for at least 1 hour by adding 150 μL of 5% BSA/TBST. The plates were washed with TBST (3×200 4/well) and left dry immediately before the capture step.
The test articles and controls (Staurosporine and Sutent) were prepared using the following assay buffer @ 3× desired final concentration (50 mM […], 0.02 mg/mL BSA, 10 mM MgCl2, 0.1 mM Na3VO4, 1 mM EGTA, 75 μM ATP0.01% NP-40, 2 mM DTT in 10% glycerol/water). In a reaction plate, were added rapidly 20 μL test article (or control) and 20 μL RET (0.25 ng/4 final concentration). The plate was incubated for 15 minutes. To the reaction plate was added 20 μL of Pyk-2 (0.25 ng/4 final concentration). The plate was incubated at room temperature for one hour.
From the reaction plate, 50 μL was transferred to the streptavidin coated plate. The capture plate was incubated at room temperature for 30 minutes then washed 6× with TBST. To the capture plate was added 100 μL/well of Cell Signaling anti-phospho tyrosine at a dilution of 1:3000 in 2% BSA/TBST. The plate was incubated for one hour at room temperature then washed 6× with TBST. To the capture plate was added 100 μL/well of Alkaline Phosphatase Tagged Goat anti Mouse Antibody at a dilution of 1:4000 in 2% BSA/TBST. The plate was incubated for one hour at room temperature then washed 6× with TBST. The fluorescent readout was initiated by the addition of 100 μL/well of Attophos reagent (6 mg/10 mL). The reading was done on the Perkin Elmer Envision system.

Tec kinase = target: T1, Tec kinase (Homo sapiens, UniProt P42680); experiment: Tec Kinase Activity Assay; type: biochemical; conditions: read-out: Tec % INH, at 30 uM
T1 sequence (P42680 1-631): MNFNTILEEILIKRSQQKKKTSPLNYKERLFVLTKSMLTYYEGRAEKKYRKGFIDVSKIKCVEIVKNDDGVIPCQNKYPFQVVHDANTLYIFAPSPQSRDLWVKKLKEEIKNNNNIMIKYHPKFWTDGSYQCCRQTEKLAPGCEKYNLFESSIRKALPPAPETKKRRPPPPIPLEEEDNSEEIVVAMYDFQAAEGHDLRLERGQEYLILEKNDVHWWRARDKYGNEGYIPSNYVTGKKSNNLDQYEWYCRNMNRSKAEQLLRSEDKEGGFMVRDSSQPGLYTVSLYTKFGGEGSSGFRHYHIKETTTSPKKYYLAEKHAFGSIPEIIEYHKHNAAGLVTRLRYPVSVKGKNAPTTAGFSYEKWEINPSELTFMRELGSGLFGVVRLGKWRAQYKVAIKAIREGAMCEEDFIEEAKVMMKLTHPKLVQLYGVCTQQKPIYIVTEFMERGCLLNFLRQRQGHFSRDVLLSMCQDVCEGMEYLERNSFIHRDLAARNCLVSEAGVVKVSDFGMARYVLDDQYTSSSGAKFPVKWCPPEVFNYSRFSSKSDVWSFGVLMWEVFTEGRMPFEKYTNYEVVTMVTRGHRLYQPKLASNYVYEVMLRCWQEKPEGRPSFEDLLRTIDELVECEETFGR
Method: as §1, with “Tec” for “RET”, “Maxisorb” for “Maxwasorb”, “μL/well)” for “4/well)”
The test articles and controls (Staurosporine and Sutent) were prepared using the following assay buffer @ 3× desired final concentration (50 mM Tris-HCl, 0.02 mg/mL BSA, 10 mM MgCl2, 0.1 mM Na3VO4, 1 mM EGTA, 75 μM ATP0.01% NP-40, 2 mM DTT in 10% glycerol/water). In a reaction plate were added rapidly 20 μL test article (or control) and 20 μL TEC 0.25 ng/4. The plate was incubated for 30 minutes. To the reaction plate was added 20 μL of Pyk-2.5 ng/μL. The plate was incubated at room temperature for two hours. From the reaction plate, 50 μL was transferred to the streptavidin coated plate. The capture plate was incubated at room temperature for 30 minutes then washed 6× with TBST. To the capture plate was added 100 μL/well of Cell Signaling anti-phospho tyrosine at a dilution of 1:3000 in 2% BSA/TBST. The plate was incubated for one hour at room temperature then washed 6× with TBST. To the capture plate was added 100 μL/well of Alkaline Phosphatase Tagged Goat anti Mouse Antibody at a dilution of 1:4000 in 2% BSA/TBST. The plate was incubated for one hour at room temperature then washed 6× with TBST. The fluorescent readout was initiated by the addition of 100 μL/well of Attophos reagent (6 mg/10 mL). The reading was done on the Perkin Elmer Envision system.

Chain of RET kinase (P07949 29-1114): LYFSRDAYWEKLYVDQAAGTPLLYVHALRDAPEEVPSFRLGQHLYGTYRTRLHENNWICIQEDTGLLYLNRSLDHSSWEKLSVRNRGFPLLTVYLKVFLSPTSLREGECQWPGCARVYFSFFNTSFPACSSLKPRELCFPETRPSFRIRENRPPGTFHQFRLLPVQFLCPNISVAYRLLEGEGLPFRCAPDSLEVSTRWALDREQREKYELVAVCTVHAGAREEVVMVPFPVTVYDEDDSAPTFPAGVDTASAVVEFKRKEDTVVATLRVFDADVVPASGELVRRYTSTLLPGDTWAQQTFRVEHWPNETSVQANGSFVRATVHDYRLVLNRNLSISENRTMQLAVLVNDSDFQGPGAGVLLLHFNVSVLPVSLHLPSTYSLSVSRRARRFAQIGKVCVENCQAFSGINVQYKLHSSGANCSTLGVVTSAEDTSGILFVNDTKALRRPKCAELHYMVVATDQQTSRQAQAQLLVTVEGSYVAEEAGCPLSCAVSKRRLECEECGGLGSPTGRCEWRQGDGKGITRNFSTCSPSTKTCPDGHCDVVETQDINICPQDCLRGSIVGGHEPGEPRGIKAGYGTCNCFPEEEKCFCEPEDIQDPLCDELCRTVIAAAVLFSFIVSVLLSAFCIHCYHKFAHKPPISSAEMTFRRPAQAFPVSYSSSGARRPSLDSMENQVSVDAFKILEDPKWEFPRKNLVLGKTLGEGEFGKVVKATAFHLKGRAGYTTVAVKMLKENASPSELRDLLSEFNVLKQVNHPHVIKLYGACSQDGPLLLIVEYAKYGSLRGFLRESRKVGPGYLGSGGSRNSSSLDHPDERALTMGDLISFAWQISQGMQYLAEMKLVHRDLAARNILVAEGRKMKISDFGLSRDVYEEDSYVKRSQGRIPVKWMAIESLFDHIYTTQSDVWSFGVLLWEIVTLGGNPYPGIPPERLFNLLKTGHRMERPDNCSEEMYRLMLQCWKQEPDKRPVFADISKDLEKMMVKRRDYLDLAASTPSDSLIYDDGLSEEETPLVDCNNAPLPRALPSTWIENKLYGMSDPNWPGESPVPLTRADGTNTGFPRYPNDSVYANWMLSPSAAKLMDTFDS

Row | Compound | inhibition at 30 µM (RET kinase) [%] | inhibition at 30 µM (Tec kinase) [%]
1 | Nc1nc(N2CCN(Cc3cccc(Cl)c3)c3ccccc3C2)c2cn[nH]c2n1 [Compound 25, 4-[1-(3-chlorobenzyl)-1,2,3,5-tetrahydro-4H-1,4-benzodiazepin-4-yl]-1H-pyrazolo[3,4-d]pyrimidin-6-amine] | < 50 | 50 to 79
2 | COc1ccc(CN2CCN(c3nc(N)nc4[nH]cnc34)Cc3ccccc32)cc1OC [Compound 27, 6-[1-(3,4-dimethoxybenzyl)-1,2,3,5-tetrahydro-4H-1,4-benzodiazepin-4-yl]-9H-purin-2-amine] | < 50 | 50 to 79
3 | CC(C)(C)c1ccc(CN2CCN(c3nc(N)nc4[nH]cnc34)Cc3ccccc32)cc1 [Compound 29, 6-[1-(4-tert-butylbenzyl)-1,2,3,5-tetrahydro-4H-1,4-benzodiazepin-4-yl]-9H-purin-2-amine] | < 50 | < 50
4 | COc1ccccc1CN1CCN(c2nc(N)nc3[nH]ncc23)Cc2ccccc21 [Compound 10, 4-[1-(2-methoxybenzyl)-1,2,3,5-tetrahydro-4H-1,4-benzodiazepin-4-yl]-1H-pyrazolo[3,4-d]pyrimidin-6-amine] | < 50 | > 79
5 | Nc1nc(N2CCN(Cc3ccc(Cl)cc3Cl)c3ccccc3C2)c2nc[nH]c2n1 [Compound 31, 6-[1-(2,4-dichlorobenzyl)-1,2,3,5-tetrahydro-4H-1,4-benzodiazepin-4-yl]-9H-purin-2-amine] | < 50 | < 50
6 | Nc1nc(N2CCN(CCCc3cccc(Cl)c3)c3ccccc3C2)c2nc[nH]c2n1 [Compound 7, 6-{1-[3-(3-chlorophenyl)propyl]-1,2,3,5-tetrahydro-4H-1,4-benzodiazepin-4-yl}-9H-purin-2-amine] | < 50 | 50 to 79
7 | COc1cccc(CN2CCN(c3nc(N)nc4[nH]cnc34)Cc3ccccc32)c1 [Compound 2, 6-[1-(3-methoxybenzyl)-1,2,3,5-tetrahydro-4H-1,4-benzodiazepin-4-yl]-9H-purin-2-amine] | 50 to 79 | 50 to 79
8 | Nc1nc(N2CCN(Cc3ccccc3Cl)c3ccccc3C2)c2nc[nH]c2n1 [Compound 13, 6-[1-(2-chlorobenzyl)-1,2,3,5-tetrahydro-4H-1,4-benzodiazepin-4-yl]-9H-purin-2-amine] | < 50 | < 50
9 | Nc1nc(N2CCN(Cc3cccc4ccccc34)c3ccccc3C2)c2nc[nH]c2n1 [Compound 17, 6-[1-(1-naphthylmethyl)-1,2,3,5-tetrahydro-4H-1,4-benzodiazepin-4-yl]-9H-purin-2-amine] | 50 to 79 | 50 to 79
10 | Nc1nc(N2CCN(Cc3cccc(Cl)c3)c3ccccc3C2)c2nc[nH]c2n1 [Compound 24, 6-[1-(3-chlorobenzyl)-1,2,3,5-tetrahydro-4H-1,4-benzodiazepin-4-yl]-9H-purin-2-amine] | 50 to 79 | 50 to 79
11 | Nc1nc(N2CCN(Cc3cccc(C(F)(F)F)c3)c3ccccc3C2)c2cn[nH]c2n1 [Compound 21, 4-{1-[3-(trifluoromethyl)benzyl]-1,2,3,5-tetrahydro-4H-1,4-benzodiazepin-4-yl}-1H-pyrazolo[3,4-d]pyrimidin-6-amine] | < 50 | 50 to 79

More lines, now with the values ahead:

Row | inhibition at 30 µM (RET kinase) [%] | inhibition at 30 µM (Tec kinase) [%] | Compound
12 | 50 to 79 | > 79 | Nc1nc(N2CCN(CCCc3ccccc3)c3ccccc3C2)c2nc[nH]c2n1 [Compound 40, 6-[1-(3-phenylpropyl)-1,2,3,5-tetrahydro-4H-1,4-benzodiazepin-4-yl]-9H-purin-2-amine]
13 | 50 to 79 | < 50 | Cc1cccc(CN2CCN(c3nc(N)nc4[nH]cnc34)Cc3ccccc32)c1 [Compound 33, 6-[1-(3-methylbenzyl)-1,2,3,5-tetrahydro-4H-1,4-benzodiazepin-4-yl]-9H-purin-2-amine]
14 | < 50 | 50 to 79 | COc1ccc(OC)c(CN2CCN(c3nc(N)nc4[nH]cnc34)Cc3ccccc32)c1 [Compound 35, 6-[1-(2,5-dimethoxybenzyl)-1,2,3,5-tetrahydro-4H-1,4-benzodiazepin-4-yl]-9H-purin-2-amine]
15 | < 50 | 50 to 79 | COc1ccc(OC)c(CN2CCN(c3nc(N)nc4[nH]ncc34)Cc3ccccc32)c1 [Compound 36, 4-[1-(2,5-dimethoxybenzyl)-1,2,3,5-tetrahydro-4H-1,4-benzodiazepin-4-yl]-1H-pyrazolo[3,4-d]pyrimidin-6-amine]
16 | 50 to 79 | 50 to 79 | Nc1nc(N2CCN(Cc3ccc(F)c(F)c3)c3ccccc3C2)c2cn[nH]c2n1 [Compound 47, 4-[1-(3,4-difluorobenzyl)-1,2,3,5-tetrahydro-4H-1,4-benzodiazepin-4-yl]-1H-pyrazolo[3,4-d]pyrimidin-6-amine]
17 | 50 to 79 | < 50 | COc1cc2c(cc1OC)C(CCc1ccccc1)N(c1nc(N)nc3[nH]ncc13)CC2 (centres unmarked) [Compound 51, 4-[6,7-dimethoxy-1-(2-phenylethyl)-3,4-dihydroisoquinolin-2(1H)-yl]-1H-pyrazolo[3,4-d]pyrimidin-6-amine]
18 | < 50 | 50 to 79 | Nc1nc(N2CCN(CCCc3ccccc3)c3ccccc3C2)c2cn[nH]c2n1 [Compound 41, 4-[1-(3-phenylpropyl)-1,2,3,5-tetrahydro-4H-1,4-benzodiazepin-4-yl]-1H-pyrazolo[3,4-d]pyrimidin-6-amine]
19 | < 50 | < 50 | Cc1ccc(CCCN2CCN(c3nc(N)nc4[nH]cnc34)Cc3ccccc32)cc1 [Compound 44, 6-{1-[3-(4-methylphenyl)propyl]-1,2,3,5-tetrahydro-4H-1,4-benzodiazepin-4-yl}-9H-purin-2-amine]
20 | 50 to 79 | < 50 | Nc1nc(N2CCN(Cc3ccc(F)c(F)c3)c3ccccc3C2)c2nc[nH]c2n1 [Compound 46, 6-[1-(3,4-difluorobenzyl)-1,2,3,5-tetrahydro-4H-1,4-benzodiazepin-4-yl]-9H-purin-2-amine]
21 | 50 to 79 | 50 to 79 | Nc1nc(N2CCN(Cc3ccc(F)cc3F)c3ccccc3C2)c2nc[nH]c2n1 [Compound 37, 6-[1-(2,4-difluorobenzyl)-1,2,3,5-tetrahydro-4H-1,4-benzodiazepin-4-yl]-9H-purin-2-amine]
22 | < 50 | 50 to 79 | Nc1nc(N2CCN(Cc3ccc(Cl)cc3Cl)c3ccccc3C2)c2cn[nH]c2n1 [Compound 32, 4-[1-(2,4-dichlorobenzyl)-1,2,3,5-tetrahydro-4H-1,4-benzodiazepin-4-yl]-1H-pyrazolo[3,4-d]pyrimidin-6-amine]

From patent US8343961B2, “Substituted heterocyclic compounds” (ArQule, Inc., priority 2009, dated 2013)
